In publication PMC5291163 (Journal of the American Chemical Society, 2016):
Like-named read-outs stand apart in the source and are kept apart here. Square brackets hold non-standard residues; d marks the D form. Peptide text beside a SMILES is read from it. * marks the point of attachment. Pentanoyl(5-PPh3+) = O=C(CCCC[P+](c1ccccc1)(c1ccccc1)c1ccccc1)*; d(pY) = N[C@H](Cc1ccc(OP(=O)(O)O)cc1)C(=O)O; pY = N[C@@H](Cc1ccc(OP(=O)(O)O)cc1)C(=O)O; NBD = O=[N+]([O-])c1ccc(*)c2nonc12; Cbz = O=C(OCc1ccccc1)*; βAla = NCCC(=O)O; CH2F = FC*

What was measured:
[1] = TEM of nanostructures before and after addition of ALP; type: physicochemical; conditions: 100 µM, before ALP
[2] = tested on: alkaline phosphatase (ALP); conditions: substrate 0.1 wt%, ALP 0.1 U/mL
[3] = ALP 1 U/mL, 24 h, PBS buffer pH 7.4
active caspase3 = conditions: Saos2 cells, 50 µM, first 3 h of treatment
HS5 cells = conditions: 100 µM

O=C(CCCC[P+](c1ccccc1)(c1ccccc1)c1ccccc1)NCCCC[C@@H](NC(=O)[C@@H](Cc1ccc(OP(=O)(O)O)cc1)NC(=O)[C@@H](Cc1ccccc1)NC(=O)[C@@H](Cc1ccccc1)NC(=O)CCNc1ccc([N+](=O)[O-])c2nonc12)C(=O)O [D-1P] ({NBD-βAla}-[dF][dF][d(pY)][dK](Pentanoyl(5-PPh3+))-OH)
diameter of uniform nanoparticles (TEM) [1]: 25 ±2 nm | percentage of enzymatic dephosphorylation after 24 h [2]: about 90% | t1/2 of ALP catalyzed dephosphorylation [2]: 33 min | increase of the SLS signal after addition of ALP ([3]; 25 µM precursor): 43 fold | increase of the SLS signal after addition of ALP ([3]; 50 µM precursor): 10 fold | increase of the SLS signal after addition of ALP ([3]; 100 µM precursor): 8 fold | increase of the SLS signal after addition of ALP ([3]; 200 µM precursor): 4 fold | expression level of active caspase3 relative to untreated cells (active caspase3): about 1.7 fold | cytotoxicity against HS5 cells (HS5 cells): almost innocuous

O=C(CCCC[P+](c1ccccc1)(c1ccccc1)c1ccccc1)NCCCC[C@H](NC(=O)[C@H](Cc1ccc(OP(=O)(O)O)cc1)NC(=O)[C@H](Cc1ccccc1)NC(=O)[C@H](Cc1ccccc1)NC(=O)CCNc1ccc([N+](=O)[O-])c2nonc12)C(=O)O [L-1P] ({NBD-βAla}-FF[pY]K(Pentanoyl(5-PPh3+))-OH)
percentage of enzymatic dephosphorylation after 24 h [2]: ~80% | t1/2 of ALP catalyzed dephosphorylation [2]: 68.4 min | cell viability of unstimulated Saos2 (Saos2 cells; 50 µM, 48h): 71.7% | increase of the SLS signal after addition of ALP ([3]; 25 µM precursor): 120 fold | increase of the SLS signal after addition of ALP ([3]; 50 µM precursor): 48 fold | increase of the SLS signal after addition of ALP ([3]; 100 µM precursor): 18 fold | increase of the SLS signal after addition of ALP ([3]; 200 µM precursor): 14 fold | expression level of active caspase3 relative to untreated cells (active caspase3): changes little | cytotoxicity against HS5 cells (HS5 cells): almost innocuous

COC(=O)C[C@H](NC(=O)[C@H](C)NC(=O)[C@@H](NC(=O)OCc1ccccc1)C(C)C)C(=O)CF [zVAD-fmk, reference compound] (Cbz-Val-Ala-Asp(OMe)-CH2F)
toxicity on Saos2 cells of the inhibitor itself (Saos2 cells; 45 µM): no toxicity
